A short description of the assay: Inhibition of RSK2 in human MOLM-13 assessed as reduction in cell viability measured after 72 hrs by MTS assay.

Broadly, the EC50 is the concentration that produces a half-maximal response. Regarding `CC(C)CCn1ccc2cnc(Nc3cc(F)c(O)c(F)c3)nc21`, the concentration giving a half-maximal response (EC50) was 1.3 µM.

In the case of `CC(C)CCn1cnc2cnc(Nc3cc(F)c(O)c(F)c3)nc21`, the EC50 was 0.97 µM. As to `Oc1c(F)cc(Nc2ncc3ccn(-c4ccc(N5CCOCC5)cc4)c3n2)cc1F`, the EC50 worked out at 0.23 µM. Take `COC(=O)CCCc1ccc(-n2cnc3cnc(Nc4cc(F)c(O)c(F)c4)nc32)cc1`: the EC50 was found to be 13.9 µM. As for `CN1CCN(c2ccc(-n3ccc4cnc(Nc5cc(F)c(O)c(F)c5)nc43)cc2)CC1`, the figure is 0.07 µM; as for `Oc1c(F)cc(Nc2ncc3ncn(-c4ccc(CCN5CCOCC5)cc4)c3n2)cc1F`, 1.9 µM.

The values are drawn from BindingDB's records for doi:10.1016/j.bmc.2021.116220 (University of Colorado Anschutz Medical Campus, 2021).
